Legend:
Septoria tritici = assay: Protective activity against Septoria leaf blotch of wheat caused by Septoria tritici; assay type: in vivo, Septoria tritici on wheat seedlings; conditions: 250 ppm active compound, sprayed six days after inoculation, assessed after 14 days; untreated plants 90% infected
Procedure: The active compounds were prepared as a stock solution comprising 25 mg of active compound which was made up to 10 ml using a mixture of acetone and/or DMSO and the emulsifier Uniperol® EL (wetting agent having emulsifying and dispersing action based on ethoxylated alkylphenols) in a volume ratio of solvent/emulsifier of 99/1. The mixture was then made up to 100 ml with water. This stock solution was diluted with the solvent/emulsifier/water mixture described to the concentration of active compounds stated below. Alternatively, the active compounds were used as a commercial finished formulation and diluted with water to the stated active compound concentration.
Leaves of potted wheat seedlings were inoculated with a spore suspension of the leaf blotch disease Septoria tritici. The test plants were then placed in a greenhouse at temperatures between 20 and 22° C. and a relative atmospheric humidity of close to 100% and then at temperatures between 16 and 18° C. and an atmospheric humidity of about 70% for 4 days. Six days after the inoculation, the plants were sprayed to runoff point with an aqueous active compound solution having the concentration stated below. After the spray coating had dried on, the plants were returned. After 14 days, the extent of the development of the disease was determined visually in % infection of the entire leaf area.

Phytophthora infestans = assay type: in vivo, Phytophthora infestans on tomato plants; conditions: 250 ppm active compound, sprayed one day before infection, assessed after 6 days; untreated plants 80% infected

Cc1nnc(Cl)c(-c2c(F)cc(OCCCN(C)C)cc2F)c1-c1ccc(Cl)cc1 [Compound I-1, (3-{-4-[3-chloro-5-(4-chlorophenyl)-6-methylpyridazin-4-yl]-3,5-difluorophenoxy}propyl)dimethylamine]
infection of the entire leaf area of treated wheat plants, determined visually (Septoria tritici): 10%
infection of treated tomato plants (late blight), determined visually (Phytophthora infestans): no infection
